Assay results from patent publication US8222416B2, “Azaindole glucokinase activators” (Hoffmann-La Roche Inc., priority 2009, dated 2012).

target: T1, Recombinant human liver GK1 (GST-GK) (Homo sapiens, UniProt P35557); experiment: In vitro glucokinase activity assay (G6PDH-coupled, NADH, OD340); format: biochemical; settings: concentration of activator that produced a 50% increase in the activity of GK; 5 mM D-glucose, 30° C.
T1 construct: made in house; host or cells: E. coli
T1 sequence (P35557 1-466 isoform P35557-2): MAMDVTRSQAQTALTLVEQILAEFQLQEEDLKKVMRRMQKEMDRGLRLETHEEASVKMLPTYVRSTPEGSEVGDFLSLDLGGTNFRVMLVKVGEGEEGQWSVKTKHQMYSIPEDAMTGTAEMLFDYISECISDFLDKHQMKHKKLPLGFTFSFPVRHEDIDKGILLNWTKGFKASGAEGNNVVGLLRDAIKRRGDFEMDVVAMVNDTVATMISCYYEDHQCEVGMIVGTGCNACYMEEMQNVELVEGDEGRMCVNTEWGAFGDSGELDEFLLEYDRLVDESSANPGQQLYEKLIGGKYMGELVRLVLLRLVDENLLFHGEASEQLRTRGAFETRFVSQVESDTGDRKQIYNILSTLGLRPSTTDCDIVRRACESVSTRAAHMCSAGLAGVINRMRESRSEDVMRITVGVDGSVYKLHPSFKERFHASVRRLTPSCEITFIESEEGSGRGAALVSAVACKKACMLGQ
Method: Glucokinase In Vitro Assay Protocol: Glucokinase (GK) was assayed by coupling the production of glucose-6-phosphate to the generation of NADH with glucose-6-phosphate dehydrogenase (G6PDH, 0.75-1 kunits/mg; Boehringer Mannheim, Indianapolis, Ind.) from Leuconostoc mesenteroides as the coupling enzyme (Scheme 2).
Recombinant human liver GK1 was expressed in E. coli as a glutathione S-transferase fusion protein (GST-GK) [Liang et al, 1995] and was purified by chromatography over a glutathione-Sepharose 4B affinity column using the procedure provided by the manufacturer (Amersham Pharmacia Biotech, Piscataway, N.J.).
The assay was conducted at 30° C. in a flat bottom 96-well tissue culture plate from Costar (Cambridge, Mass.) with a final incubation volume of 120 μL. The incubation reaction contained the following: 25 mM Hepes buffer (pH 7.1), 25 mM KCl, 5 mM D-glucose, 1 mM ATP, 1.8 mM NAD, 2 mM MgCl2, 1 μM sorbitol-6-phosphate, 1 mM dithiothreitol, test drug or 10% dimethylsulfoxide, ˜7 units/ml G6PDH, and GK (see below). All organic reagents were >98% pure and were from Boehringer Mannheim with the exceptions of D-glucose and Hepes which were from Sigma Chemical Co, St Louis, Mo. Test compounds were dissolved in dimethylsulfoxide and were added to the incubation reaction minus GST-GK in a volume of 12 μL to yield a final dimethylsulfoxide concentration of 10%. This mix was pre-incubated in the temperature controlled chamber of a SPECTRAmax 250 microplate spectrophotometer (Molecular Devices Corporation, Sunnyvale, Calif.) for 10 minutes to allow temperature equilibrium and then the reaction was started by the addition of 20 μL GST-GK.
After addition of enzyme, the increase in optical density (OD) at 340 nm was monitored spectrophotometrically to determine the rate of change (OD340 per min). The GK activity (OD340/min) in control wells (10% dimethylsulfoxide minus GK activators) was compared with the activity in wells containing test GK activators, and the concentration of activator that produced a 50% increase in the activity of GK, i.e., the SC1.5, was calculated.

**Q.** `CS(=O)(=O)c1ccc([C@@H](CC2CCCC2)c2cc3cc(C(F)(F)F)cnc3[nH]2)cc1` (single isomer, unassigned) [Example 127] was tested. Which SC1.5 did it give?
**A.** 0.607 µM

**Q.** Which SC1.5 does the source give for `COc1cnc2[nH]c(C(CC3CCCC3)c3ccc(C(F)(F)F)cc3)cc2c1` (stereo not shown) [Example 20, 2-[2-Cyclopentyl-1-(4-trifluoromethyl-phenyl)-ethyl]-5-methoxy-1H-pyrrolo[2,3b]pyridine] here?
**A.** 0.693 µM

**Q.** With `FC(F)(F)c1ccc(C(CC2CCOCC2)c2cc3cccnc3[nH]2)cc1` (stereo not shown) [Example 68, 2-[2-(Tetrahydro-pyran-4-yl)-1-(4-trifluoromethyl-phenyl)-ethyl]-1H-pyrrolo[2,3-b]pyridine] as the molecule, how does the SC1.5 read?
**A.** 0.888 µM

**Q.** With `CN(C)C(=O)COc1cnc2[nH]c(C(CC3CCCC3)c3ccc(S(C)(=O)=O)cc3)cc2c1` (stereo not shown) [Example 13, 2-{2-[2-Cyclopentyl-1-(4-methanesulfonyl-phenyl)-ethyl]-1H-pyrrolo[2,3-b]pyridin-5-yloxy}-N,N-dimethyl-acetamide] as the molecule, how does the SC1.5 read?
**A.** 2.0 µM

**Q.** With `CC(C)(C)CC(c1ccc(S(C)(=O)=O)cc1)c1cc2cccnc2[nH]1` (stereo not shown) [Example 74, 2-[1-(4-Methanesulfonyl-phenyl)-3,3-dimethyl-butyl]-1H-pyrrolo[2,3-b]pyridine] as the molecule, how does the SC1.5 read?
**A.** 20.6 µM

**Q.** `CS(=O)(=O)c1ccc(C(CC2CCCC2)c2cc3cc(CCCO)cnc3[nH]2)cc1` (stereo not shown) [Example 45, 3-{2-[2-Cyclopentyl-1-(4-methanesulfonyl-phenyl)-ethyl]-1H-pyrrolo[2,3-b]pyridin-5-yl}-propan-1-ol] was tested. Which SC1.5 did it give?
**A.** 14.9 µM

**Q.** `CNC(=O)c1cnc2[nH]c([C@H](CC3CCCC3)c3ccc(S(C)(=O)=O)cc3)cc2c1` [Example 6, 2-[2-Cyclopentyl-1(R)-(4-methanesulfonyl-phenyl)-ethyl]-1H-pyrrolo[2,3-b]pyridin-5-carboxylic acid methylamide] was tested. Which SC1.5 did it give?
**A.** 1.0 µM

**Q.** How did the SC1.5 turn out when `CS(=O)(=O)c1ccc(/C(=C\C2CCCC2)c2cc3cc(F)cnc3[nH]2)cc1` [Example 116, 2-[(E)-2-cyclopentyl-1-(4-methanesulfonyl-phenyl)-vinyl]-5-fluoro-1H-pyrrolo[2,3-b]pyridine] was run?
**A.** 0.009 µM

**Q.** Which SC1.5 does the source give for `CS(=O)(=O)c1ccc(C(CC2CCCC2)c2cc3cc(C(F)(F)F)cnc3[nH]2)cc1` (stereo not shown) [Example 126, 2-[2-Cyclopentyl-1-(4-methanesulfonyl-phenyl)-ethyl]-5-trifluoromethyl-1H-pyrrolo[2,3-b]pyridine] here?
**A.** 2.0 µM

**Q.** With `CC(C)(O)c1ccc(C(CC2CCCC2)c2cc3cc(F)cnc3[nH]2)cc1F` (stereo not shown) [Example 103, 2-{4-[2-Cyclopentyl-1-(5-fluoro-1H-pyrrolo[2,3-b]pyridin-2-yl)-ethyl]-2-fluoro-phenyl}-propan-2-ol] as the molecule, how does the SC1.5 read?
**A.** 0.18 µM

**Q.** `O=S(=O)(CCN1CCOCC1)c1ccc(C(CC2CCCC2)c2cc3cccnc3[nH]2)cc1` (stereo not shown) [Example 93, 2-{2-Cyclopentyl-1-[4-(2-morpholin-4-yl-ethanesulfonyl)-phenyl]-ethyl}-1H-pyrrolo[2,3-b]pyridine] was tested. Which SC1.5 did it give?
**A.** 1.7 µM

**Q.** For `CCOc1ccc(C(CC2CCCC2)c2cc3cccnc3[nH]2)cn1` (stereo not shown) [Example 108, 2-[2-Cyclopentyl-1-(6-ethoxy-pyridin-3-yl)-ethyl]-1H-pyrrolo[2,3-b]pyridine], which SC1.5 is on record?
**A.** 2.4 µM

**Q.** With `O=S(=O)(CCO)c1ccc(C(CC2CCCC2)c2cc3cc(F)cnc3[nH]2)cc1` (stereo not shown) [Example 88, 2-{4-[2-Cyclopentyl-1-(5-fluoro-1H-pyrrolo[2,3-b]pyridin-2-yl)-ethyl]-benzenesulfonyl}-ethanol] as the molecule, how does the SC1.5 read?
**A.** 0.178 µM

**Q.** `CC(C)(O)c1ccc([C@@H](CC2CCCC2)c2cc3cccnc3[nH]2)cc1F` (single isomer, unassigned) [Example 96] was tested. Which SC1.5 did it give?
**A.** 0.144 µM

**Q.** Which SC1.5 does the source give for `CNC(=O)c1cnc2[nH]c(C(CC(C)C)c3ccc(S(C)(=O)=O)cc3)cc2c1` (stereo not shown) [Example 2, 2-[1-(4-Methanesulfonyl-phenyl)-3-methyl-butyl]-1H-pyrrolo[2,3-b]pyridin-5-carboxylic acid methylamide] here?
**A.** 11.3 µM

**Q.** Which SC1.5 does the source give for `COc1cnc2[nH]c(C(CC3CCOCC3)c3ccc(C(F)(F)F)cc3)cc2c1` (stereo not shown) [Example 33, 5-Methoxy-2-[2-(tetrahydro-pyran-4-yl)-1-(4-trifluoromethyl-phenyl)-ethyl]-1H-pyrrolo[2,3-b]pyridine] here?
**A.** 3.0 µM

**Q.** `COC(=O)c1cnc2[nH]c([C@H](CC3CCCC3)c3ccc(S(C)(=O)=O)cc3)cc2c1` (single isomer, unassigned) [Example 55] was tested. Which SC1.5 did it give?
**A.** 0.512 µM

**Q.** `CS(=O)(=O)c1ccc(C(CC2CCCO2)c2cc3cccnc3[nH]2)cc1` (stereo not shown) [Example 71, 2-[1-(4-Methanesulfonyl-phenyl)-2-(tetrahydro-furan-2-yl)-ethyl]-1H-pyrrolo[2,3-b]pyridine] was tested. Which SC1.5 did it give?
**A.** 2.3 µM

**Q.** `CC(C)(CO)Oc1cnc2[nH]c(C(CC3CCCC3)c3ccc(S(C)(=O)=O)cc3)cc2c1` (stereo not shown) [Example 28, 2-{2-[2-Cyclopentyl-1-(4-methanesulfonyl-phenyl)-ethyl]-1H-pyrrolo[2,3-b]pyridin-5-yloxy}-2-methyl-propan-1-ol] was tested. Which SC1.5 did it give?
**A.** 2.8 µM

**Q.** With `CN(C)CCc1cnc2[nH]c(C(CC3CCCC3)c3ccc(S(C)(=O)=O)cc3)cc2c1` (stereo not shown) [Example 40, (2-{2-[2-Cyclopentyl-1-(4-methanesulfonyl-phenyl)-ethyl]-1H-pyrrolo[2,3-b]pyridin-5-yl}-ethyl)-dimethyl-amine] as the molecule, how does the SC1.5 read?
**A.** 9.0 µM

**Q.** For `CC(C)CC(c1ccc(S(C)(=O)=O)cc1)c1cc2cc(C(=O)NC(C)C)cnc2[nH]1` (stereo not shown) [Example 1, 2-[1-(4-Methanesulfonyl-phenyl)-3-methyl-butyl]-1H-pyrrolo[2,3-b]pyridin-5-carboxylic acid isopropylamide], which SC1.5 is on record?
**A.** 19.0 µM

**Q.** `CS(=O)(=O)c1ccc(C(CC2CCCC2)c2cc3cc(C(=O)N4CCOCC4)cnc3[nH]2)cc1` (stereo not shown) [Example 4, {2-[2-Cyclopentyl-1-(4-methanesulfonyl-phenyl)-ethyl]-1H-pyrrolo[2,3-b]pyridin-5-yl}-morpholin-4-yl-methanone] was tested. Which SC1.5 did it give?
**A.** 10.5 µM

**Q.** For `CC(C)(O)c1ccc(C(CC2CCCC2)c2cc3cc(F)cnc3[nH]2)cc1` (stereo not shown) [Example 119, 2-{4-[2-Cyclopentyl-1-(5-fluoro-1H-pyrrolo[2,3-b]pyridin-2-yl)-ethyl]-phenyl}-propan-2-ol], which SC1.5 is on record?
**A.** 0.78 µM

**Q.** With `CC(=O)c1ccc(C(CC2CCCC2)c2cc3cccnc3[nH]2)cc1` (stereo not shown) [Example 80, 1-{4-[2-Cyclopentyl-1-(1H-pyrrolo[2,3-b]pyridin-2-yl)-ethyl]-phenyl}-ethanone] as the molecule, how does the SC1.5 read?
**A.** 2.6 µM

**Q.** `CS(=O)(=O)c1ccc(C(CC2CCOCC2)c2cc3cc(Cl)cnc3[nH]2)cc1` (stereo not shown) [Example 114, 5-Chloro-2-[1-(4-methanesulfonyl-phenyl)-2-(tetrahydro-pyran-4-yl)-ethyl]-1H-pyrrolo[2,3-b]pyridine] was tested. Which SC1.5 did it give?
**A.** 2.2 µM

**Q.** With `CC(C)C[C@H](c1ccc(S(=O)(=O)CCO)cc1)c1cc2cc(F)cnc2[nH]1` (single isomer, unassigned) [Example 102] as the molecule, how does the SC1.5 read?
**A.** 0.427 µM

**Q.** Which SC1.5 does the source give for `O=S(=O)(CCO)c1ccc(C(CC2CCCC2)c2cc3cccnc3[nH]2)cc1` (stereo not shown) [Example 91] here?
**A.** 0.832 µM

**Q.** Which SC1.5 does the source give for `CS(=O)(=O)c1ccc(C(CC2CCCC2)c2cc3cc(C#N)cnc3[nH]2)cc1` (stereo not shown) [Example 52, 2-[2-Cyclopentyl-1-(4-methanesulfonyl-phenyl)-ethyl]-1H-pyrrolo[2,3-b]pyridin-5-carbonitrile] here?
**A.** 0.37 µM

**Q.** With `Cc1cccc(C(CC(C)C)c2cc3cccnc3[nH]2)c1` (stereo not shown) [Example 130, 2-(3-Methyl-1-m-tolyl-butyl)-1H-pyrrolo[2,3-b]pyridine] as the molecule, how does the SC1.5 read?
**A.** 7.8 µM

**Q.** For `CC(=O)c1cccc(C(CC(C)C)c2cc3cccnc3[nH]2)c1` (stereo not shown) [Example 135, 1-{3-[3-Methyl-1-(1H-pyrrolo[2,3-b]pyridin-2-yl)-butyl]-phenyl}-ethanone], which SC1.5 is on record?
**A.** 9.6 µM

**Q.** `CNC(=O)c1cnc2[nH]c(C(CC3CCCC3)c3ccc(S(C)(=O)=O)cc3)cc2c1` (stereo not shown) [Example 5, 2-[2-Cyclopentyl-1-(4-methanesulfonyl-phenyl)-ethyl]-1H-pyrrolo[2,3-b]pyridin-5-carboxylic acid methylamide] was tested. Which SC1.5 did it give?
**A.** 1.9 µM
